# From patent US20240165087A1, “APPLICATION OF RILUZOLE- AND BORNEOL-CONTAINING COMPOSITION IN PREPARATION OF MEDICATION FOR TREATING CEREBROVASCULAR DISEASES” (NEURODAWN PHARMACEUTICAL CO., LTD., priority 2021, published 2024)
# Tests used:
# [1] = test system: MCAO rats; test: Rat focal cerebral ischemia-reperfusion model (MCAO), neurological deficit score and cerebral infarction area; format: in vivo; conditions: Example 6
# Description: The rat focal cerebral ischemia-reperfusion model was established by internal carotid artery suture method. The limbs (hind limbs above the knee joint and forelimbs above the wrist joint) and head of an anesthetized rat were tightened with rubber bands. The animal was fixed on an operating table in supine position, and was shaved with an animal shaver from the head to the chest, and the skin was disinfected with alcohol. The neck of the rat was cut at the midline, and the subcutaneous tissue was bluntly separated. The thin layer of fascia on the surface of the anterior triangle of the neck was separated, the lower side-lower edge of the clavicular hyoid muscle was pulled up, and the longitudinally pulsating artery parallel to this muscle can be seen. The arterial shell was opened, and the bifurcation of the right carotid artery was exposed. The right common carotid artery, external carotid artery and internal carotid artery were separated. The vagus nerve was gently stripped, and the external carotid artery was ligated and cut. The proximal end of the common carotid artery was clamped. An incision was made at the distal end from the ligature of the external carotid artery, and was inserted with a suture line, which was passed through the bifurcation of the common carotid artery into the internal carotid artery, and then was inserted slowly until reaching slight resistance (approximately 20 mm from the bifurcation), so as to block all blood supply to the middle cerebral artery. The suture line was slightly fixed below the incision of the external carotid artery with silk thread. The silk thread clamping the proximal end of the common carotid artery was loosened. A gauze soaked in sterile saline was covered on the wound, and the rat was placed on a heat preservation pad to keep warm. 2.0 h after cerebral ischemia on the right side, the suture line was pulled out gently to restore the blood supply for reperfusion. The external carotid artery was ligated with silk thread fixing the suture line. The skin was stitched, and disinfected. The rats were placed in clean feed, and their general condition and respiration were observed until they woke up from anesthesia. The rats were provided with food and water, and commonly reared.
# After the cerebral ischemia model was established, the animals were assigned to each group in a single-blind manner with equal probability. After reperfusion, the animals were immediately administered intravenously with the drugs once. The animals in the model group were administered with an equal volume of normal saline. Neurological deficit symptoms were evaluated 24 hours after cerebral ischemia, the animals were sacrificed, and their brains were taken out, stained, and photographed for determining the area of cerebral infarction.
# Neurological deficit symptoms were evaluated using the modified Bederson 5-point scale. The neurological deficit symptoms of rats after cerebral ischemia were evaluated by a single-blind method. […] After scoring, the scoring results of various markers were submitted to the designer, who unblinded and obtained the scoring of each animal in each experimental group.
# The degree of cerebral infarction was determined by TTC staining. After the evaluation of the symptoms of neurological deficits was completed, the animals were sacrificed with CO2. The brain was taken out by cutting off head. The olfactory bulb, cerebellum and lower brainstem were removed. The blood on the surface of the brain was washed with normal saline, and the residual water on the surface was removed. The brain was placed at −20° C. for 20 min, then taken out, immediately cut to a coronal section vertically downward at the crossing plane of the line of sight, and sliced backward every 2 mm. The brain slices were incubated in 1% TTC staining solution (at 37° C. for 30 min). The normal brain tissue was stained into dark red, and the ischemic brain tissue was stained into pale white.
# [2] = biological target: kainic acid receptors; conditions: read-out: IC50, block of kainic acid receptors; cited from earlier work
# [3] = biological target: N-methyl-D-aspartate (NMDA) receptors; conditions: read-out: IC50, noncompetitive block of NMDA receptors; cited from earlier work
# [4] = biological target: T1, recombinant human GABAAR (α1β2γ2L) (Homo sapiens, UniProt P14867+P18507+P47870); conditions: Xenopus laevis oocytes, cited from earlier work
# T1 construct: host or cells: Xenopus laevis oocytes
# [5] = test system: primary cortical neurons; test: NMDA-induced excitatory injury test on primary cortical neurons (Luminescent Cell Viability Assay); format: cell-based, rat
# Description: Pregnant SD rats at 18 days of pregnancy were sacrificed by cervical dislocation. The uterus of rats was dissected and the brain of E18 fetal rats was taken out. The cerebral cortex tissue of the fetal rats was separated into ice-cold DMEM. The meninges and blood vessels on the cortical tissue were removed under a dissecting microscope. The cortical tissue was transferred into ice-cold DMEM, cut into pieces (about 1 mm^3), and digested with trypsin at 37° C. for 10 min. The digestion was stopped with FBS. The obtained cells were blown gently with a Pasteur pipette and passed through a 200-mesh sieve. The filtered cell suspension was transferred to a 15 mL centrifuge tube, and centrifuged at 1000 rpm for 5 min. The supernatant was discarded. Then the cell mass at the bottom of the centrifuge tube was blown gently with 37° C.-prewarmed complete medium (Neurobasal+B27+GlutaMax+1% P/S). The cells were counted using a hemocytometer, diluted to 5×10^5 cells/mL with complete medium, and seeded in a 96-well plate coated with PDL (100 μL/well). Half of the cell culture medium was replaced with complete medium the next day. […] After the inducing buffer was discarded, the cells were washed once with a Locke's buffer containing 1 mM MgCl2, and recovered to be incubated for 4 h by replacing with a complete medium (100 μL/well). The viability of the primary neuron cells was determined by Luminescent Cell Viability Assay kit. According to the instruction, reagents were added at 100 μL/well, and shaking was performed for 10 min. […] Calculation formula: relative neuron activity V (%)=(LUM-LUMbackground)/(LUMnormal control group-LUMbackground group)×100%. LUMbackground was the background reading of the Luminescent Cell Viability Assay reagent added to the cell-free complete medium well. […] Fitting of EC50 of compounds: Log[compound concentration] was used as the abscissa and the relative inhibition rate was used as the ordinate. Log(inhibitor) vs. response-variable slope (four parameters) curve was fitted by Prism8 (GraphPad) to obtain the IC50 of the compounds. […] After the inducing buffer was discarded, the cells were washed once with a Locke's buffer containing 1 mM MgCl2, and recovered to be incubated for 4 h by replacing with a complete medium (100 μL/well). […] After the inducing buffer was discarded, the cells were washed once with a Locke's buffer containing 1 mM MgCl2, and recovered to be incubated for 4 h by replacing with a complete medium (100 μL/well). […] After the inducing buffer was discarded, the cells were washed once with a Locke's buffer containing 1 mM MgCl2, and recovered to be incubated for 4 h by replacing with a complete medium (100 μL/well). […] After the inducing buffer was discarded, the cells were washed once with a Locke's buffer containing 1 mM MgCl2, and recovered to be incubated for 4 h by replacing with a complete medium (100 μL/well).
# T1 sequence (P14867 28-456): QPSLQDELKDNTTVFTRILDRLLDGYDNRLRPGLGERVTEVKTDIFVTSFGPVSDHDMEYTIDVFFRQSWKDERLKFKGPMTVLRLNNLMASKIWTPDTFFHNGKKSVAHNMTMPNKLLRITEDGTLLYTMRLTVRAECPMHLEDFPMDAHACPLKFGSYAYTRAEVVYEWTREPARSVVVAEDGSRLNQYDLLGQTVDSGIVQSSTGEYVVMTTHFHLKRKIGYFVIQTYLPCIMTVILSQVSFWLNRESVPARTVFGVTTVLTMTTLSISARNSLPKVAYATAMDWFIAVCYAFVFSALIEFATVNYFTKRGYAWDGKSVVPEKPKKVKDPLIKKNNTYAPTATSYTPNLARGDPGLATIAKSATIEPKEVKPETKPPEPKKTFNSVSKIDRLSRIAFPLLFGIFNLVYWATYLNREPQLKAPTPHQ
# T1 sequence (P47870 25-512 limits assumed): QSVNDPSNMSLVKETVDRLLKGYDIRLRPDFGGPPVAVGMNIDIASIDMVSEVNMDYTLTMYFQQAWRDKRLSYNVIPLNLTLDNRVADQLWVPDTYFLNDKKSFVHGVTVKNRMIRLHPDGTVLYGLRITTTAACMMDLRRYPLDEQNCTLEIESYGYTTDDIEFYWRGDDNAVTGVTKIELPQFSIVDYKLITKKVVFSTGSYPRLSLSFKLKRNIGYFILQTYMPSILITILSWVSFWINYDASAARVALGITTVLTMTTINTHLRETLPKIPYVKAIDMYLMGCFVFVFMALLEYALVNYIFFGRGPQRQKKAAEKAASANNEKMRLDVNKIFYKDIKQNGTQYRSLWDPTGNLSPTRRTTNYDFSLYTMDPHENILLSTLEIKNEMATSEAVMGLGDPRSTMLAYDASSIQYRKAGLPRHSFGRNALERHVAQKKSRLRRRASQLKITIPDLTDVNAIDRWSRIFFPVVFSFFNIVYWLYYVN
# T1 sequence (P18507 40-475): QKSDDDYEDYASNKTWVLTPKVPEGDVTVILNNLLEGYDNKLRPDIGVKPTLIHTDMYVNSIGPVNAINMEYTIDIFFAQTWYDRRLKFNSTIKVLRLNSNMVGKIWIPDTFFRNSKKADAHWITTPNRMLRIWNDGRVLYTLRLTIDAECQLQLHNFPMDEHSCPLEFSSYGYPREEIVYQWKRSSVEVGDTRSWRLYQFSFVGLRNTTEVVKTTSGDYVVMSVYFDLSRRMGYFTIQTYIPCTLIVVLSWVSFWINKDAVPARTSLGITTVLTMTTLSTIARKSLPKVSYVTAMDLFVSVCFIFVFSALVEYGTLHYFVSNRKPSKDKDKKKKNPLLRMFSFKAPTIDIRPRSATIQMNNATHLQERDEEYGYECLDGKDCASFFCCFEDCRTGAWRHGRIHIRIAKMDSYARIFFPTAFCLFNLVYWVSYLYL
compound,measurement,setting,value
"Nc1nc2ccc(OC(F)(F)F)cc2s1 [Riluzole, 2-Amino-6-trifluoromethoxybenzothiazole]",neurological deficit score vs MCAO model group,"[1]; 8 mg/kg i.v. once after reperfusion, 24 hours",significantly reduced
same,IC50,[2],167 µM
same,IC50,[3],18 µM
CC1(C)[C@@H]2CC[C@@]1(C)[C@@H](O)C2 [(+)-2-Borneol],EC50,"[4]; low concentration of GABA, read-out: EC50, enhancement of GABAAR function",248 µM
same,enhancement of function of GABAAR induced by low concentration of GABA,[4],more than 10 times
same,neurological deficit score vs MCAO model group,"[1]; 1 mg/kg i.v. once after reperfusion, 24 hours",significantly reduced
same,cerebral infarction area vs MCAO model group,"[1]; 0.5 and 1 mg/kg i.v. once after reperfusion, 24 hours","dose-dependently, significantly reduced"
same,"Fa, reducing the area of cerebral infarction in MCAO rats",[1]; (+)-2-borneol 0.5 mg/kg,0.157
same,"Fa, reducing the area of cerebral infarction in MCAO rats",[1]; (+)-2-borneol 1 mg/kg,0.256
same,"neurological deficit score of MCAO rats, dose dependence","[1]; i.v. once after reperfusion, evaluated 24 hours after cerebral ischemia",dose-dependently reduce
same,viability of neurons with excitatory injury,"[5]; Example 1, 0.41-3.7 μM",concentration-dependently increased
same,viability of neurons with excitatory injury,"[5]; Example 1, 10-100 μM",tended to decrease
same,viability of neurons with NMDA-induced excitatory injury,"[5]; Example 2, alone at 3.7 μM",significantly improve
same,"Fa, protecting neurons from excitatory injury","[5]; Example 3, (+)-2-borneol 0.5 μM",0.014
same,"Fa, protecting neurons from excitatory injury","[5]; Example 3, (+)-2-borneol 1 μM",0.022
same,"Fa, protecting neurons from excitatory injury","[5]; Example 3, (+)-2-borneol 2 μM",0.152
same,"Fa, protecting neurons from excitatory injury","[5]; Example 3, (+)-2-borneol 4 μM",0.22
same,"Fa, protecting neurons from excitatory injury","[5]; Example 3, (+)-2-borneol 8 μM",0.231
same,viability of neurons with injury induced by NMDA,"[5]; Example 3, riluzole 10-160 μM, (+)-2-borneol 0.5-8 μM, compositions 20:1",concentration-dependently increase
same,"Fa, protecting neurons from excitatory injury","[5]; Example 4, (+)-2-borneol 0.5 μM",0.042
same,"Fa, protecting neurons from excitatory injury","[5]; Example 4, (+)-2-borneol 1 μM",0.069
same,"Fa, protecting neurons from excitatory injury","[5]; Example 4, (+)-2-borneol 2 μM",0.086
same,"Fa, protecting neurons from excitatory injury","[5]; Example 4, (+)-2-borneol 4 μM",0.209
same,"Fa, protecting neurons from excitatory injury","[5]; Example 4, (+)-2-borneol 8 μM",0.205
same,viability of neurons with injury induced by NMDA,"[5]; Example 4, riluzole 2.5-40 μM, (+)-2-borneol 0.5-8 μM, compositions 5:1",concentration-dependently increase
same,"Fa, protecting neurons from excitatory injury","[5]; Example 5, (+)-2-borneol 0.5 μM",0.042
same,"Fa, protecting neurons from excitatory injury","[5]; Example 5, (+)-2-borneol 1 μM",0.077
same,"Fa, protecting neurons from excitatory injury","[5]; Example 5, (+)-2-borneol 2 μM",0.128
same,"Fa, protecting neurons from excitatory injury","[5]; Example 5, (+)-2-borneol 4 μM",0.205
same,"Fa, protecting neurons from excitatory injury","[5]; Example 5, (+)-2-borneol 8 μM",0.202
same,viability of neurons with injury induced by NMDA / protective effect,"[5]; Example 5, riluzole 0.5-8 μM, (+)-2-borneol 0.5-8 μM, compositions 1:1",concentration-dependently increase
same,Emax,"[5]; Rattus norvegicus, Primary cortical neuron, Example 1, concentration-inhibition rate curve, read-out: Emax (relative inhibition rate)",15%
